The test system of test [1] is Puccinia triticina; Synonym: Puccinia recondite f. Sp. Tritici. The test is described as follows: Wheat Brown Rust (PUCCRT) disease control. It is filed as in vivo. As to conditions: Puccinia triticina, topical; for pest or weed control at 121.5 g/ha: rate 121.5 g/H; for pest or weed control at 100 ppm: rate 100 ppm. A digest of the protocol: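 Brown rust on first-leaf Yuma wheat: spore inoculation before or after spray application (acetone/Triton X-100 solution, or EC with Trycol in track spray), overnight 100% RH at 22 °C, disease developed at 24 °C. Severity scored 0–100% and converted to percent control against untreated.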

For test [2], the system named is Mycosphaerella graminicola; Anamorph: Septoria tritici. The test is described as follows: Leaf Blotch of Wheat (SEPTTR) disease control. In kind it is in vivo. As to conditions: Zymoseptoria tritici; for pest or weed control at 121.5 g/ha: rate 121.5 g/H; for pest or weed control at 100 ppm: rate 100 ppm. In outline:
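Preventive or curative tests: first-leaf Yuma wheat, sprayed to run-off, inoculated with S. tritici, dew chamber at 100% humidity, then greenhouse at 20° C. Severity on the first leaf is scored on a 0–100% scale and expressed as % control against untreated plants.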

The mark [3] stands for this setting: 24 h, 1 Day Protectant, read-out: PUCCRT 1 DP disease control.
[4] abbreviates: 72 h, 3 Day Curative, read-out: PUCCRT 3 DC disease control.
Where [5] appears, read: 24 h, 1 Day Protectant, read-out: SEPTTR 1 DP disease control.
[6] abbreviates: 72 h, 3 Day Curative, read-out: SEPTTR 3 DC disease control.

Molecules are shown by their SMILES. Like-named read-outs stand apart in the source and are kept apart here.

On to `CCO[C@@H]1[C@@H](Cc2ccccc2)CCC[C@H](NC(=O)c2nccc(OC)c2OCOC(C)=O)C(=O)O[C@H]1C` [Compound F111], for which the pest or weed control at 121.5 g/ha in test [1] (setting [3]), in test [1] (setting [4]), in test [2] (setting [5]) and in test [2] (setting [6]) was 80 to 100% throughout.

As for `COCCO[C@@H]1[C@@H](Cc2ccccc2)CCC[C@H](NC(=O)c2nccc(OC)c2OCOC(C)=O)C(=O)O[C@H]1C` [Compound F112], the pest or weed control at 121.5 g/ha in test [1] (setting [3]), in test [1] (setting [4]), in test [2] (setting [5]) and in test [2] (setting [6]) was 80 to 100% each time.

Take `COc1ccnc(C(=O)N[C@H]2CCC[C@H](CC3CCCC3)[C@@H](Oc3ccccc3)[C@H](C)OC2=O)c1OCOC(C)=O` [Compound F115]: the pest or weed control at 100 ppm in test [1] (setting [3]), in test [1] (setting [4]), in test [2] (setting [5]) and in test [2] (setting [6]) was 80 to 100% each time. Also, the pest or weed control at 121.5 g/ha in test [1] (setting [3]) lay in the range of 80 to 100%; in test [1] (setting [4]) it was 0 to 80%; in test [2] (setting [5]), 80 to 100%; in test [2] (setting [6]), 80 to 100%.

`COc1ccc(C[C@H]2CCC[C@H](NC(=O)c3nccc(OC)c3OCOC(C)=O)C(=O)O[C@@H](C)[C@@H]2OCC2CC2)cc1` [Compound F116]: the pest or weed control at 100 ppm in test [1] (setting [3]), in test [1] (setting [4]), in test [2] (setting [5]) and in test [2] (setting [6]) was 80 to 100% throughout. The pest or weed control at 121.5 g/ha in test [1] (setting [3]), in test [1] (setting [4]), in test [2] (setting [5]) and in test [2] (setting [6]) was 80 to 100% each time.

For `COc1ccnc(C(=O)N[C@H]2CCC[C@H](Cc3ccco3)[C@@H](OCC(C)C)[C@H](C)OC2=O)c1OCOC(C)=O` [Compound F120], the pest or weed control at 121.5 g/ha in test [1] (setting [3]) is 80 to 100%; in test [2] (setting [5]), 80 to 100%; in test [2] (setting [6]), 0 to 80%.

Take `CCCO[C@@H]1[C@@H](CC2CCCC2)CCC[C@H](NC(=O)c2nccc(OC)c2OCOC(C)=O)C(=O)O[C@H]1C` [Compound F122]: the pest or weed control at 100 ppm in test [1] (setting [3]), in test [1] (setting [4]), in test [2] (setting [5]) and in test [2] (setting [6]) was 80 to 100% in each case. In addition, the pest or weed control at 121.5 g/ha in test [1] (setting [3]), in test [1] (setting [4]), in test [2] (setting [5]) and in test [2] (setting [6]) was 80 to 100% in each case.

Regarding `COc1ccnc(C(=O)N[C@H]2CCC[C@H](CC3CCCC3)[C@@H](OCC(C)C)[C@H](C)OC2=O)c1OCOC(C)=O` [Compound F123], the pest or weed control at 100 ppm in test [1] (setting [3]), in test [1] (setting [4]), in test [2] (setting [5]) and in test [2] (setting [6]) was 80 to 100% in each case. For the same compound, the pest or weed control at 121.5 g/ha in test [1] (setting [3]) fell in the range of 80 to 100%; in test [1] (setting [4]) it was 0 to 80%; in test [2] (setting [5]), 80 to 100%; in test [2] (setting [6]), 80 to 100%.

As for `COc1ccnc(C(=O)N[C@H]2CCC[C@H](C)[C@@H](OCc3ccccc3)[C@H](C)OC2=O)c1OCOC(C)=O` [Compound F125], the pest or weed control at 100 ppm in test [1] (setting [3]), in test [1] (setting [4]), in test [2] (setting [5]) and in test [2] (setting [6]) was 80 to 100% throughout. For the same compound, the pest or weed control at 121.5 g/ha in test [1] (setting [3]), in test [1] (setting [4]), in test [2] (setting [5]) and in test [2] (setting [6]) was 80 to 100% in each case.

Take `COc1ccnc(C(=O)N[C@H]2CCC[C@H](CCOc3ccccc3)[C@@H](Oc3ccccc3)[C@H](C)OC2=O)c1OCOC(C)=O` [Compound F129]: the pest or weed control at 100 ppm in test [1] (setting [3]), in test [1] (setting [4]), in test [2] (setting [5]) and in test [2] (setting [6]) was 80 to 100% each time. Besides, the pest or weed control at 121.5 g/ha in test [1] (setting [3]) lay within 80 to 100%; in test [1] (setting [4]) it was 0 to 80%; in test [2] (setting [5]) it was 80 to 100%; in test [2] (setting [6]), 80 to 100%.

`COc1ccnc(C(=O)N[C@H]2CCC[C@H](CCSC)[C@@H](OCC(C)C)[C@H](C)OC2=O)c1OCOC(C)=O` [Compound F131]: the pest or weed control at 100 ppm in test [1] (setting [3]), in test [1] (setting [4]), in test [2] (setting [5]) and in test [2] (setting [6]) was 80 to 100% each time. The pest or weed control at 121.5 g/ha in test [1] (setting [3]) was 80 to 100%; in test [1] (setting [4]), 80 to 100%; in test [2] (setting [5]) it was 0 to 80%; in test [2] (setting [6]) it was 80 to 100%.

Take `CC[C@H]1CCC[C@H](NC(=O)c2nccc(OC)c2OCOC(C)=O)C(=O)O[C@@H](C)[C@@H]1OCC(C)C` [Compound F133]: the pest or weed control at 100 ppm in test [1] (setting [3]), in test [1] (setting [4]), in test [2] (setting [5]) and in test [2] (setting [6]) was 80 to 100% in each case. For the same compound, the pest or weed control at 121.5 g/ha in test [1] (setting [3]), in test [1] (setting [4]), in test [2] (setting [5]) and in test [2] (setting [6]) was 80 to 100% in each case.

`COc1ccnc(C(=O)N[C@H]2CCC[C@H](CCBr)[C@@H](Oc3ccccc3)[C@H](C)OC2=O)c1OCOC(C)=O` [Compound F135]: the pest or weed control at 100 ppm in test [1] (setting [3]), in test [1] (setting [4]), in test [2] (setting [5]) and in test [2] (setting [6]) was 80 to 100% each time.

Take `CC[C@H]1CCC[C@H](NC(=O)c2nccc(OC)c2OCOC(C)=O)C(=O)O[C@@H](C)[C@@H]1Oc1ccccc1` [Compound F136]: the pest or weed control at 100 ppm in test [1] (setting [3]), in test [1] (setting [4]), in test [2] (setting [5]) and in test [2] (setting [6]) was 80 to 100% in each case. Moreover, the pest or weed control at 121.5 g/ha in test [1] (setting [3]), in test [1] (setting [4]), in test [2] (setting [5]) and in test [2] (setting [6]) was 80 to 100% in each case.

Regarding `COc1ccnc(C(=O)N[C@H]2CCC[C@H](Cc3ccc(F)cc3F)[C@@H](OCc3ccccc3)[C@H](C)OC2=O)c1OCOC(C)=O` [Compound F137], the pest or weed control at 100 ppm in test [1] (setting [3]), in test [1] (setting [4]), in test [2] (setting [5]) and in test [2] (setting [6]) was 80 to 100% throughout. For the same compound, the pest or weed control at 121.5 g/ha in test [1] (setting [3]) fell in the range of 80 to 100%; in test [1] (setting [4]), 0 to 80%; in test [2] (setting [5]), 80 to 100%; in test [2] (setting [6]), 80 to 100%.

For `COc1ccnc(C(=O)N[C@H]2CCC[C@H](Cc3ccc(C)cc3)[C@@H](OCCCC(F)(F)F)[C@H](C)OC2=O)c1OCOC(C)=O` [Compound F139], the pest or weed control at 100 ppm in test [1] (setting [3]), in test [1] (setting [4]), in test [2] (setting [5]) and in test [2] (setting [6]) was 80 to 100% each time. The pest or weed control at 121.5 g/ha lay in the range of 80 to 100% in test [1] (setting [3]), 0 to 80% in test [1] (setting [4]), 80 to 100% in test [2] (setting [5]) and 80 to 100% in test [2] (setting [6]).

Turning to `COc1ccnc(C(=O)N[C@H]2CCC[C@H](CCOCC3CC3)[C@@H](OCC3CC3)[C@H](C)OC2=O)c1OCOC(C)=O` [Compound F140], the pest or weed control at 100 ppm in test [1] (setting [3]) lay within 80 to 100%; in test [1] (setting [4]) it was 80 to 100%; in test [2] (setting [5]) it was 80 to 100%; in test [2] (setting [6]) it was 0 to 80%. The pest or weed control at 121.5 g/ha is 80 to 100% in test [1] (setting [3]), 80 to 100% in test [1] (setting [4]), 0 to 80% in test [2] (setting [5]) and 0 to 80% in test [2] (setting [6]).

In the case of `COc1ccnc(C(=O)N[C@H]2CCC[C@H](CCOc3ccccc3)[C@@H](OCC3CC3)[C@H](C)OC2=O)c1OCOC(C)=O` [Compound F142], the pest or weed control at 100 ppm in test [1] (setting [3]), in test [1] (setting [4]), in test [2] (setting [5]) and in test [2] (setting [6]) was 80 to 100% in each case. Besides, the pest or weed control at 121.5 g/ha in test [1] (setting [3]) was 80 to 100%; in test [1] (setting [4]) it was 80 to 100%; in test [2] (setting [5]), 80 to 100%; in test [2] (setting [6]) it was 0 to 80%.

For the compound `COc1ccnc(C(=O)N[C@H]2CCC[C@@H]3CCO[C@H]3[C@H](C)OC2=O)c1OCOC(C)=O` [Compound F143], the pest or weed control at 100 ppm in test [1] (setting [3]) is 80 to 100%; in test [1] (setting [4]), 80 to 100%; in test [2] (setting [5]) it was 0 to 80%; in test [2] (setting [6]), 0 to 80%. In addition, the pest or weed control at 121.5 g/ha in test [1] (setting [3]) is 80 to 100%; in test [1] (setting [4]), 80 to 100%; in test [2] (setting [5]), 0 to 80%.

The values above are taken from patent US9265253B2, “Use of macrocyclic picolinamides as fungicides” (DOW AGROSCIENCES LLC, priority 2013, dated 2016).
